The values that follow are results of earlier work, collected in patent US20050260283A1, “Composition for prevention and treatment of colon adenomas” (Medical Futures Inc., priority 2004, published 2005).

Data set [1] relates to colorectal adenomas. To be noted: calcium supplementation; volunteers with a history of colorectal adenomas (Baron, 1999).
The test system of data set [2] is colorectal cancer. As to conditions: regular aspirin use; epidemiological studies (Krishnan, 1997).

Take `O=C([O-])[O-].[Ca+2]` [calcium carbonate]: in data set [1], the “risk of recurrent colorectal adenomas” value is reported as “moderate but significant reduction”.

On to `CC(=O)Oc1ccccc1C(=O)O` [aspirin], for which the “reduction in the incidence of colorectal cancer” value in data set [2] was 40-50%.
